Measurements from patent publication US20250340552A1, “COMPOUNDS, COMPOSITIONS AND METHODS OF TREATING DISORDERS” (HOTSPOT THERAPEUTICS, INC., priority 2022, published 2025).
Read-outs that look alike come from different tables or passages of the source.

Target: T1, Cbl-B (Homo sapiens, UniProt Q13191)
T1 construct: MSD-Based Assay for Degradation of Cbl-B in THP-1 Cells; endogenous in cells; host or cells: THP-1 (title) / Jurkat (protocol text)
Assay: MSD-based assay for degradation of Cbl-B in THP-1 cells
Format: cell-based
Outline: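 THP-1 cells were treated with compound for 24 h at 37 °C. Cbl-B in lysates was quantified by MSD sandwich immunoassay, with anti-Cbl-B capture antibody at 1 ug/mL and SULFO-TAG anti-rabbit detection. Maximal degradation (Dmax) was binned as A >70%, B 50–70%, C 30–50%, D <30%.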

[1] = Cbl-B degradation, Jurkat cells seeded (heading: THP-1 cells), 24 hours incubation, MSD readout
[2] = Cbl-B degradation, Jurkat cells seeded (heading: THP-1 cells), 24 hours incubation, MSD readout, read-out: Dmax

T1 sequence (Q13191 whole entry): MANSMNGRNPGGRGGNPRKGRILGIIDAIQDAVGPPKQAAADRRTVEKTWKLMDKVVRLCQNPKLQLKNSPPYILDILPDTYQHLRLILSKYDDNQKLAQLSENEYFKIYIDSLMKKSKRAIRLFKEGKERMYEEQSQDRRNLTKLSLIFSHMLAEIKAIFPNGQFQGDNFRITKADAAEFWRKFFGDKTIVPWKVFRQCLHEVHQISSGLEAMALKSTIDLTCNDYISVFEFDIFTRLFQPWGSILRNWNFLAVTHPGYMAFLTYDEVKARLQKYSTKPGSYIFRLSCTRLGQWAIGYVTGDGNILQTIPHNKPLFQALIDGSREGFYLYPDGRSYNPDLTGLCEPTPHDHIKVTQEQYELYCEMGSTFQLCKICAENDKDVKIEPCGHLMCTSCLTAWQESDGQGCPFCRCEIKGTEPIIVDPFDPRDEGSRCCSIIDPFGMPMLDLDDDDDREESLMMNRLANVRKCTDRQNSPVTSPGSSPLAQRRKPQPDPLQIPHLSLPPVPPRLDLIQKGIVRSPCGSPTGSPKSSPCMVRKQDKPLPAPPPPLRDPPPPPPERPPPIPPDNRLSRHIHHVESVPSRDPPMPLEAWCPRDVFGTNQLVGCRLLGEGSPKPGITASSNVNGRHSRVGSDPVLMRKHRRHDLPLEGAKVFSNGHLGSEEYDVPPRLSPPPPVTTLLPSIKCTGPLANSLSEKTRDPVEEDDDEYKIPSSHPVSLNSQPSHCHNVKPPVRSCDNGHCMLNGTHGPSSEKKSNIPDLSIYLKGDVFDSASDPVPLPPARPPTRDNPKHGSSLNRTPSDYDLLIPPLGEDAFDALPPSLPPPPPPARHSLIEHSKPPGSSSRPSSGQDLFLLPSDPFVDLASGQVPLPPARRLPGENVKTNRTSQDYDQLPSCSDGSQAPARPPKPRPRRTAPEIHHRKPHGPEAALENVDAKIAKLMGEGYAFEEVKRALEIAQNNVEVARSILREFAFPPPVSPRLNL

| Structure (SMILES) | DC50 [1] [nM] | Dmax [2] [%] | Dmax (THP-1) [%] |
| --- | --- | --- | --- |
| Cn1cnnc1[C@@H](c1cccc(-n2cc3c(C(F)(F)F)cc(CN4CCC(OC(=O)N5CCC(CC6CCN(c7ccc8c(c7)CN([C@@H]7CCC(=O)NC7=O)C8=O)CC6)CC5)CC4)cn3c2=O)c1)C1CCC1 (single isomer, unassigned) [Compound 253] | 30 to 300 | 50 to 70 |  |
| Cn1cnnc1[C@@H](c1cccc(-n2cc3c(C(F)(F)F)cc(CN4CCC(OC(=O)N5CCC(CC6CCN(c7ccc8c(c7)CN([C@H]7CCC(=O)NC7=O)C8=O)CC6)CC5)CC4)cn3c2=O)c1)C1CCC1 (single isomer, unassigned) [Compound 254] | < 30 | > 70 |  |
| Cn1cnnc1CC1(c2cccc(-n3cc4c(C(F)(F)F)cc(CN5CCC(CC(=O)N6CCC(CC7CCN(c8ccc9c(c8)CN([C@@H]8CCC(=O)NC8=O)C9=O)CC7)CC6)CC5)cn4c3=O)c2)COC1 (single isomer, unassigned) [Compound 257] | 30 to 300 |  | 50 to 70 |
| Cn1cnnc1CC1(c2cccc(-n3cc4c(C(F)(F)F)cc(CN5CCC(CC(=O)N6CCC(CC7CCN(c8ccc9c(c8)CN([C@H]8CCC(=O)NC8=O)C9=O)CC7)CC6)CC5)cn4c3=O)c2)COC1 (single isomer, unassigned) [Compound 258] | < 30 |  | > 70 |
| Cn1cnnc1CC1(c2cccc(-n3cc4c(C(F)(F)F)cc(CN5CCC(CCN6CCC(CC7CCN(c8ccc9c(c8)CN([C@@H]8CCC(=O)NC8=O)C9=O)CC7)CC6)CC5)cn4c3=O)c2)COC1 (single isomer, unassigned) [Compound 259] | 30 to 300 | 50 to 70 |  |
| Cn1cnnc1CC1(c2cccc(-n3cc4c(C(F)(F)F)cc(CN5CCC[C@@H](OC6CCN(C(=O)c7ccc(N8CCN(c9ccc%10c(c9)CN([C@@H]9CCC(=O)NC9=O)C%10=O)CC8)cc7)CC6)C5)cn4c3=O)c2)COC1 (single isomer, unassigned) [Compound 263] | < 30 | > 70 |  |
| Cn1cnnc1CC1(c2cccc(-n3cc4c(C(F)(F)F)cc(CNCCOCCOCCNc5cccc6c5C(=O)N(C5CCC(=O)NC5=O)C6=O)cn4c3=O)c2)COC1 (stereo not drawn) [Compound 1] | > 10000 | < 30 |  |
| Cn1cnnc1CC1(c2cccc(-n3cc4c(C(F)(F)F)cc(CN5CCC(OCCOCc6ccc(COCCNc7cccc8c7C(=O)N(C7CCC(=O)NC7=O)C8=O)cc6)CC5)cn4c3=O)c2)COC1 (stereo not drawn) [Compound 3] | 300 to 1000 | 50 to 70 |  |
| Cn1cnnc1CC1(c2cccc(-n3cc4c(C(F)(F)F)cc(CN5CCC(OCCN6CCC(CN7CCN(c8cc9c(cc8F)C(=O)N(C8CCC(=O)NC8=O)C9=O)CC7)CC6)CC5)cn4c3=O)c2)COC1 (stereo not drawn) [Compound 7] | > 10000 |  | < 30 |
| Cn1cnnc1CC1(c2cccc(-n3cc4c(C(F)(F)F)cc(CN5CCC(OCCOCc6ccc(CNc7cccc8c7C(=O)N(C7CCC(=O)NC7=O)C8=O)cc6)CC5)cn4c3=O)c2)COC1 (stereo not drawn) [Compound 12] | > 10000 | < 30 |  |
| Cn1cnnc1[C@@H](c1cccc(-n2cc3c(C(F)(F)F)cc(CN4CCC(OCc5ccc(COCCNc6cccc7c6C(=O)N(C6CCC(=O)NC6=O)C7=O)cc5)CC4)cn3c2=O)c1)C1CCC1 (stereo partly drawn) [Compound 13] | 1000 to 10000 | < 30 |  |
| Cn1cnnc1[C@@H](c1cccc(-n2cc3c(C(F)(F)F)cc(CN4CCC(OCCOCc5ccc(CNc6cccc7c6C(=O)N(C6CCC(=O)NC6=O)C7=O)cc5)CC4)cn3c2=O)c1)C1CCC1 (stereo partly drawn) [Compound 14] | 1000 to 10000 | 30 to 50 |  |
| Cn1cnnc1[C@@H](c1cccc(-n2cc3c(C(F)(F)F)cc(CN4CCC(OCCN5CCC(CN6CCN(c7cc8c(cc7F)C(=O)N(C7CCC(=O)NC7=O)C8=O)CC6)CC5)CC4)cn3c2=O)c1)C1CCC1 (stereo partly drawn) [Compound 16] | 1000 to 10000 | 30 to 50 |  |
| Cn1cnnc1[C@@H](c1cccc(-n2cc3c(C(F)(F)F)cc(CN4CCC[C@H](OCCOCc5ccc(COCCNc6cccc7c6C(=O)N(C6CCC(=O)NC6=O)C7=O)cc5)C4)cn3c2=O)c1)C1CCC1 (stereo partly drawn) [Compound 17] | 30 to 300 | 50 to 70 |  |
| Cn1cnnc1CC1(c2cccc(-n3cc4c(C(F)(F)F)cc(CN5CCC(OCCOCc6ccc(CN7CCN(c8cccc9c8C(=O)N(C8CCC(=O)NC8=O)C9=O)CC7)cc6)CC5)cn4c3=O)c2)COC1 (stereo not drawn) [Compound 19] | > 10000 | < 30 |  |
| Cn1cnnc1CC1(c2cccc(N3Cc4c(cc(CN5CCC(OCCOCc6ccc(COCCNc7cccc8c7C(=O)N(C7CCC(=O)NC7=O)C8=O)cc6)CC5)cc4C(F)(F)F)C3=O)c2)COC1 (stereo not drawn) [Compound 21] | 1000 to 10000 | 30 to 50 |  |
| Cn1cnnc1[C@@H](c1cccc(-n2cc3c(C(F)(F)F)cc(CN4CCC(OCCOCc5ccc(CN6CCN(c7cccc8c7C(=O)N(C7CCC(=O)NC7=O)C8=O)CC6)cc5)CC4)cn3c2=O)c1)C1CCC1 (stereo partly drawn) [Compound 24] | > 10000 | < 30 |  |
| Cn1cnnc1CC1(c2cccc(-n3cc4c(C(F)(F)F)cc(CN5CCC(OCCN6CCC(CN7CCCN(c8ccc9c(c8)CN(C8CCC(=O)NC8=O)C9=O)CC7)CC6)CC5)cn4c3=O)c2)COC1 (stereo not drawn) [Compound 25] | 300 to 1000 | 30 to 50 |  |
| Cn1cnnc1[C@@H](c1cccc(-n2cc3c(C(F)(F)F)cc(CN4CCC(CN5CCC(CN6CCN(c7cc8c(cc7F)C(=O)N(C7CCC(=O)NC7=O)C8=O)CC6)CC5)CC4)cn3c2=O)c1)C1CCC1 (stereo partly drawn) [Compound 29] | > 10000 | < 30 |  |
| Cn1cnnc1[C@@H](c1cccc(-n2cc3c(C(F)(F)F)cc(CN4CCC(C(=O)N5CCC(CN6CCN(c7cc8c(cc7F)C(=O)N(C7CCC(=O)NC7=O)C8=O)CC6)CC5)CC4)cn3c2=O)c1)C1CCC1 (stereo partly drawn) [Compound 30] | > 10000 | < 30 |  |
| Cn1cnnc1[C@@H](c1cccc(-n2cc3c(C(F)(F)F)cc(CN4CCC[C@@H](OCCOCc5ccc(COCCNc6cccc7c6C(=O)N(C6CCC(=O)NC6=O)C7=O)cc5)CC4)cn3c2=O)c1)C1CCC1 (stereo partly drawn) [Compound 31] | 30 to 300 | 50 to 70 |  |
| CN(CCOC1CCN(Cc2cc(C(F)(F)F)c3cn(-c4cccc([C@H](c5nncn5C)C5CCC5)c4)c(=O)n3c2)CC1)C(=O)c1ccc(N2CCN(c3cccc4c3C(=O)N(C3CCC(=O)NC3=O)C4=O)CC2)cc1 (stereo partly drawn) [Compound 33] | > 10000 | < 30 |  |
| CN(CCOC1CCN(Cc2cc(C(F)(F)F)c3cn(-c4cccc([C@H](c5nncn5C)C5CCC5)c4)c(=O)n3c2)CC1)C(=O)c1ccc(N2CCN(c3ccc4c(c3)CN([C@H]3CCC(=O)NC3=O)C4=O)CC2)cc1 [Compound 34] | 30 to 300 |  | > 70 |
| CN(CCOC1CCN(Cc2cc(C(F)(F)F)c3cn(-c4cccc([C@H](c5nncn5C)C5CCC5)c4)c(=O)n3c2)CC1)C(=O)c1ccc(N2CCN(c3ccc4c(c3)CN([C@@H]3CCC(=O)NC3=O)C4=O)CC2)cc1 [Compound 35] | 300 to 1000 | 50 to 70 |  |

The next lines start with results.

| DC50 [1] [nM] | Dmax [2] [%] | Structure (SMILES) | Dmax (THP-1) [%] |
| --- | --- | --- | --- |
| < 30 | > 70 | Cn1cnnc1CC1(c2cccc(-n3cc4c(C(F)(F)F)cc(CN5CCC[C@@H](OC6CCN(C(=O)c7ccc(N8CCN(c9ccc%10c(c9)CN([C@H]9CCC(=O)NC9=O)C%10=O)CC8)cc7)CC6)C5)cn4c3=O)c2)COC1 (single isomer, unassigned) [Compound 264] |  |
| > 10000 | < 30 | Cn1cnnc1CC1(c2cccc(-n3cc4c(C(F)(F)F)cc(CNCCOCCNc5cccc6c5C(=O)N(C5CCC(=O)NC5=O)C6=O)cn4c3=O)c2)COC1 (stereo not drawn) [Compound 2] |  |
| > 10000 | < 30 | Cn1cnnc1CC1(c2cccc(-n3cc4c(C(F)(F)F)cc(CNCCOCCOCc5ccc(COCCNc6cccc7c6C(=O)N(C6CCC(=O)NC6=O)C7=O)cc5)cn4c3=O)c2)COC1 (stereo not drawn) [Compound 4] |  |
| > 10000 | < 30 | CN(CCN1CCC(CN2CCN(c3cc4c(cc3F)C(=O)N(C3CCC(=O)NC3=O)C4=O)CC2)CC1)Cc1cc(C(F)(F)F)c2cn(-c3cccc(C4(Cc5nncn5C)COC4)c3)c(=O)n2c1 (stereo not drawn) [Compound 15] |  |
| > 10000 | < 30 | Cn1cnnc1CC1(c2cccc(-n3cc4c(C(F)(F)F)cc(CN5CCC(OCCOCc6ccc(CN7CCN(c8cc9c(cc8F)C(=O)N(C8CCC(=O)NC8=O)C9=O)CC7)cc6)CC5)cn4c3=O)c2)COC1 (stereo not drawn) [Compound 18] |  |
| 300 to 1000 | 50 to 70 | Cn1cnnc1[C@@H](c1cccc(-n2cc3c(C(F)(F)F)cc(CC4CCC[C@@H](OCCOCc5ccc(COCCNc6cccc7c6C(=O)N(C6CCC(=O)NC6=O)C7=O)cc5)C4)cn3c2=O)c1)C1CCC1 (stereo partly drawn) [Compound 20] |  |
| 30 to 300 | > 70 | Cn1cnnc1[C@@H](c1cccc(N2Cc3c(cc(CN4CCC(OCCOCc5ccc(COCCNc6cccc7c6C(=O)N(C6CCC(=O)NC6=O)C7=O)cc5)CC4)cc3C(F)(F)F)C2=O)c1)C1CCC1 (stereo partly drawn) [Compound 22] |  |
| > 10000 | < 30 | Cn1cnnc1[C@@H](c1cccc(-n2cc3c(C(F)(F)F)cc(CN4CCC(OCCOCc5ccc(CN6CCN(c7cc8c(cc7F)C(=O)N(C7CCC(=O)NC7=O)C8=O)CC6)cc5)CC4)cn3c2=O)c1)C1CCC1 (stereo partly drawn) [Compound 23] |  |
| > 10000 | < 30 | Cn1cnnc1[C@@H](c1cccc(-n2cc3c(C(F)(F)F)cc(CN4CCC(COCc5ccc(CN6CCN(c7cccc8c7C(=O)N(C7CCC(=O)NC7=O)C8=O)CC6)cc5)CC4)cn3c2=O)c1)C1CCC1 (stereo partly drawn) [Compound 28] |  |
| 30 to 300 | 30 to 50 | Cn1cnnc1[C@@H](c1cccc(-n2cc3c(C(F)(F)F)cc(CN4CCC[C@H](OCCOCc5ccc(COCCNc6cccc7c6C(=O)N(C6CCC(=O)NC6=O)C7=O)cc5)CC4)cn3c2=O)c1)C1CCC1 (stereo partly drawn) [Compound 32] |  |
| 1000 to 10000 | < 30 | Cn1cnnc1CC1(c2cccc(-n3cc4c(C(F)(F)F)cc(CN5CCC(OCCNc6cccc7c6C(=O)N(C6CCC(=O)NC6=O)C7=O)CC5)cn4c3=O)c2)COC1 (stereo not drawn) [Compound 36] |  |
| 1000 to 10000 | < 30 | Cn1cnnc1[C@@H](c1cccc(-n2cc3c(C(F)(F)F)cc(CN4CCC(OCCNc5cccc6c5C(=O)N(C5CCC(=O)NC5=O)C6=O)CC4)cn3c2=O)c1)C1CCC1 (stereo partly drawn) [Compound 37] |  |
